Laboratory results taken from US12138256B2, “Treatment of cardiopulmonary disorders” (Bayer Aktiengesellschaft, priority 2021, dated 2024).
Where “and” joins values, the source holds several entries; their conditions need not be identical. Equal values may be shown once.

Tested on: thromboxane analog U46619 induced PAH in minipigs
Assay: Haemodynamics (PAP, BP) in the anesthetized thromboxane challenged PAH minipig after inhaled (nebulized) application (C-2.1)
Type: in vivo, Göttingen minipig
Conditions: for % changes in BP vs baseline / % changes in PAP vs baseline: inhaled 30 μg/kg; for BP % change vs. baseline / PAP % change vs. baseline: 100 μg/kg nominal dose, individual animals
Method in brief: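 Anesthetized, ventilated Göttingen minipigs (2-6 kg) given continuous infusion (0.3-0.75 μg/kg/min) to raise mean PAP above 25 mmHg, dosing starting after a 30 min plateau. Compound in 1% DMSO/0.2% citric acid, pH 8, nebulized via Aeroneb Pro into the inspiratory arm (~7 min; stock 300 μg/kg). PAP by Swan-Ganz catheter, BP via carotid catheter.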

O=C(O)CCCCN(CCc1cc(F)ccc1OCc1ccc(-c2nc3cc(Cl)ccc3o2)cc1)C1CCCc2nc(C(=O)O)ccc21 (single isomer, unassigned) [comparative example 3, (5)-{(4-carboxybutyl)[2-(2-{[4-(5-chloro-1,3-benzoxazol-2-yl)benzyl]oxy}-5-fluorophenyl)ethyl]amino}-5,6,7,8-tetrahydroquinoline-2-carboxylic acid]
time of maximum effect on PAP (after inhaled application (nebulization), comparative example 11 30 μg/kg, Cinaciguat 3 and 10 μg/kg, Riociguat 100 μg/kg, comparative example 3 30 μg/kg): 30 min
duration of action (PAP decrease) (after inhaled application (nebulization), comparative example 11 30 μg/kg, Cinaciguat 3 and 10 μg/kg, Riociguat 100 μg/kg, comparative example 3 30 μg/kg, observation interval 240 min): 120 min
% changes in BP vs baseline (0 min vs. start inhalation): 100% and 99%
% changes in PAP vs baseline (0 min vs. start inhalation): 100% and 99%
% changes in BP vs baseline (10 min vs. start inhalation): 98% and 93%
% changes in PAP vs baseline (10 min vs. start inhalation): 103% and 99%
% changes in BP vs baseline (20 min vs. start inhalation): 94% and 87%
% changes in PAP vs baseline (20 min vs. start inhalation): 103% and 97%
% changes in BP vs baseline (30 min vs. start inhalation): 95% and 84%
% changes in PAP vs baseline (30 min vs. start inhalation): 104% and 98%
% changes in BP vs baseline (40 min vs. start inhalation): 97% and 81%
% changes in PAP vs baseline (40 min vs. start inhalation): 105% and 95%
% changes in BP vs baseline (50 min vs. start inhalation): 98% and 86%
% changes in PAP vs baseline (50 min vs. start inhalation): 106% and 95%
% changes in BP vs baseline (60 min vs. start inhalation): 101% and 88%
% changes in PAP vs baseline (60 min vs. start inhalation): 108% and 94%
% changes in BP vs baseline (70 min vs. start inhalation): 103% and 88%
% changes in PAP vs baseline (70 min vs. start inhalation): 108% and 93%
% changes in BP vs baseline (80 min vs. start inhalation): 104% and 92%
% changes in PAP vs baseline (80 min vs. start inhalation): 110% and 96%
% changes in BP vs baseline (90 min vs. start inhalation): 106% and 95%
% changes in PAP vs baseline (90 min vs. start inhalation): 110% and 94%
% changes in BP vs baseline (100 min vs. start inhalation): 107% and 96%
% changes in PAP vs baseline (100 min vs. start inhalation): 111% and 93%
% changes in BP vs baseline (110 min vs. start inhalation): 109% and 100%
% changes in PAP vs baseline (110 min vs. start inhalation): 111% and 93%
% changes in BP vs baseline (120 min vs. start inhalation): 111% and 107%
% changes in PAP vs baseline (120 min vs. start inhalation): 112% and 95%
% changes in BP vs baseline (130 min vs. start inhalation): 111% and 104%
% changes in PAP vs baseline (130 min vs. start inhalation): 112% and 92%
% changes in BP vs baseline (140 min vs. start inhalation): 112% and 103%
% changes in PAP vs baseline (140 min vs. start inhalation): 113% and 93%
% changes in BP vs baseline (150 min vs. start inhalation): 112% and 107%
% changes in PAP vs baseline (150 min vs. start inhalation): 113% and 93%
% changes in BP vs baseline (160 min vs. start inhalation): 112% and 110%
% changes in PAP vs baseline (160 min vs. start inhalation): 112% and 92%
% changes in BP vs baseline (170 min vs. start inhalation): 113% and 108%
% changes in PAP vs baseline (170 min vs. start inhalation): 110% and 92%
% changes in BP vs baseline (180 min vs. start inhalation): 113% and 108%
% changes in PAP vs baseline (180 min vs. start inhalation): 112% and 93%
% changes in BP vs baseline (190 min vs. start inhalation): 113%
% changes in PAP vs baseline (190 min vs. start inhalation): 111% and 93%
% changes in BP vs baseline (200 min vs. start inhalation): 112% and 110%
% changes in PAP vs baseline (200 min vs. start inhalation): 110% and 93%
% changes in BP vs baseline (210 min vs. start inhalation): 112% and 109%
% changes in PAP vs baseline (210 min vs. start inhalation): 109% and 93%
% changes in BP vs baseline (220 min vs. start inhalation): 113%
% changes in PAP vs baseline (220 min vs. start inhalation): 109% and 96%
% changes in BP vs baseline (230 min vs. start inhalation): 111% and 112%
% changes in PAP vs baseline (230 min vs. start inhalation): 109% and 94%
% changes in BP vs baseline (240 min vs. start inhalation): 110% and 112%
% changes in PAP vs baseline (240 min vs. start inhalation): 109% and 94%
% changes in BP vs baseline (−5 min vs. start inhalation): 99% and 96%
% changes in PAP vs baseline (−5 min vs. start inhalation): 99%
lung selectivity with respect to the hemodynamic effect (inhaled, 30 μg/kg): good lung selectivity

O=C(O)c1ccc(CCN(CCc2cc(F)ccc2OCc2ccc(-c3nc4cc(Cl)ccc4o3)cc2)C2CCCc3nc(C(=O)O)ccc32)cc1 (single isomer, unassigned) [comparative example 4, 5-{[2-(4-Carboxyphenyl)ethyl][2-(2-{[4-(5-chloro-1,3-benzoxazol-2-yl)benzyl]oxy}-5-fluorophenyl)-ethyl]amino}-5,6,7,8-tetrahydroquinoline-2-carboxylic acid]
BP % change vs. baseline (inhaled, time 80 min): 101.1% and 101.2% and 101.0%
PAP % change vs. baseline (inhaled, time 80 min): 102.0% and 96.2% and 97.5%
BP % change vs. baseline (inhaled, time 90 min): 98.7% and 100.3% and 101.0%
PAP % change vs. baseline (inhaled, time 90 min): 100.2% (2×) and 102.2%
BP % change vs. baseline (inhaled, time 100 min): 101.1% and 100.3% and 98.3%
PAP % change vs. baseline (inhaled, time 100 min): 100.0% and 93.1% and 96.4%
BP % change vs. baseline (inhaled, time 110 min): 99.9% and 102.2% and 98.3%
PAP % change vs. baseline (inhaled, time 110 min): 97.2% and 88.9% and 89.8%
BP % change vs. baseline (inhaled, time 120 min): 101.1% and 101.2% and 101.9%
PAP % change vs. baseline (inhaled, time 120 min): 86.5% and 86.2% and 86.0%
BP % change vs. baseline (inhaled, time 130 min): 99.9% and 99.4% and 100.1%
PAP % change vs. baseline (inhaled, time 130 min): 77.5% and 78.6% and 84.6%
BP % change vs. baseline (inhaled, time 140 min): 99.9% and 99.4% and 100.1%
PAP % change vs. baseline (inhaled, time 140 min): 76.3% and 77.7% and 81.3%
BP % change vs. baseline (inhaled, time 150 min): 99.9% and 98.5% and 100.1%
PAP % change vs. baseline (inhaled, time 150 min): 77.3% and 75.0% and 78.7%
BP % change vs. baseline (inhaled, time 160 min): 99.9% and 96.7% and 99.2%
PAP % change vs. baseline (inhaled, time 160 min): 75.5% and 71.4% and 77.3%
BP % change vs. baseline (inhaled, time 170 min): 101.1% and 97.6% and 99.2%
PAP % change vs. baseline (inhaled, time 170 min): 72.1% and 71.9% and 75.1%
BP % change vs. baseline (inhaled, time 180 min): 102.3% and 95.8% and 99.2%
PAP % change vs. baseline (inhaled, time 180 min): 74.0% and 68.0% and 75.9%
BP % change vs. baseline (inhaled, time 190 min): 102.3% and 95.8% and 99.2%
PAP % change vs. baseline (inhaled, time 190 min): 74.5% and 65.0% and 77.1%
BP % change vs. baseline (inhaled, time 200 min): 102.3% and 94.0% and 99.2%
PAP % change vs. baseline (inhaled, time 200 min): 70.1% and 70.6% and 77.2%
BP % change vs. baseline (inhaled, time 210 min): 103.5% and 94.0% and 99.2%
PAP % change vs. baseline (inhaled, time 210 min): 70.8% and 65.6% and 76.8%
BP % change vs. baseline (inhaled, time 220 min): 105.9% and 95.8% and 98.3%
PAP % change vs. baseline (inhaled, time 220 min): 77.8% and 66.7% and 75.3%
BP % change vs. baseline (inhaled, time 230 min): 107.1% and 94.9% and 97.4%
PAP % change vs. baseline (inhaled, time 230 min): 82.5% and 71.3% and 73.9%
BP % change vs. baseline (inhaled, time 240 min): 107.1% and 94.0% and 97.4%
PAP % change vs. baseline (inhaled, time 240 min): 81.0% and 67.4% and 75.0%
BP % change vs. baseline (inhaled, time 250 min): 109.4% and 94.9% and 98.3%
PAP % change vs. baseline (inhaled, time 250 min): 79.0% and 72.2% and 75.0%
BP % change vs. baseline (inhaled, time 260 min): 107.1% and 94.9% and 98.3%
PAP % change vs. baseline (inhaled, time 260 min): 75.0% and 72.7% and 76.7%
BP % change vs. baseline (inhaled, time 270 min): 107.1% and 94.9% and 97.4%
PAP % change vs. baseline (inhaled, time 270 min): 70.3% and 71.1% and 78.4%
BP % change vs. baseline (inhaled, time 280 min): 107.1% and 94.9% and 99.2%
PAP % change vs. baseline (inhaled, time 280 min): 65.8% and 75.6% and 79.7%
BP % change vs. baseline (inhaled, time 290 min): 107.1% and 94.0% and 98.3%
PAP % change vs. baseline (inhaled, time 290 min): 68.3% and 73.4% and 79.9%
BP % change vs. baseline (inhaled, time 300 min): 107.1% and 94.9% and 99.2%
PAP % change vs. baseline (inhaled, time 300 min): 69.1% and 76.2% and 79.6%
BP % change vs. baseline (inhaled, time 310 min): 107.1% and 94.9% and 98.3%
PAP % change vs. baseline (inhaled, time 310 min): 62.8% and 79.9% and 79.5%
BP % change vs. baseline (inhaled, time 320 min): 104.7% and 94.9% and 99.2%
PAP % change vs. baseline (inhaled, time 320 min): 61.8% and 76.5% and 81.3%
BP % change vs. baseline (inhaled, time 330 min): 107.1% and 94.0% and 101.0%
PAP % change vs. baseline (inhaled, time 330 min): 63.1% and 77.9% and 83.3%
lung selectivity (inhaled, nominal dose of 100 μg/kg): good lung selectivity
